From patent US6593511B1, “Models of chronic and acute inflammatory diseases” (Bioseek, Inc., priority 2000, dated 2003)

How the values were obtained:
psoriatic scid/scid mice = assay: Treatment of established chronic skin inflammation (psoriasis) in scid/scid mice after transfer of CD4+/CD25- T cells and LPS; ear thickness and histology; type: in vivo, mouse
Excerpt: Mice. Female Balb/c mice (donor mice) were purchased from Jackson Labs (Bar Harbor, Me.) or similar source, and C.B-17/Icr scid/scid (recipient mice) were purchased from Taconic (Germantown, N.Y.) or Charles River. All mice were housed in a specific pathogen free environment and were used between 4-8 wk of age. Mice were housed 2-5 per microisolator. All scid/scid mice were handled with gloves under a class II hood, fed sterile food and water ad libitum, and maintained in sterilized microisolators that are changed twice weekly. Donor mice were housed in conventional cages that were changed weekly.
Induction of chronic skin inflammation. Briefly, splenocytes were collected from 5-10 week old donor mice (Balb/c) and donor population was either enriched for CD4+ and depleted of CD25+ cells, or depleted of CD25+ cells only. The collected cell population was injected subcutaneously (s.c.) into C.B-17/Icr scid/scid mice, aged 4-8 weeks (usually 3×10^5 to 5×10^5 cells per mouse in 200-400 μL). […]
Cell Selection: Balb/c mouse spleens were collected and homogenized by pressing through 100 μ cell strainer (Falcon) and suspended in cold PBS supplemented with 10% FBS. […] The resultant cell quantities were 5-8 million cells per spleen. […]
The thickness of the skin on the ear was measured using a Dyer micrometer. […]

scid/scid mice = assay: Effect of co-factors on disease induction in the scid/scid CD4+/CD25- transfer model; type: in vivo, mouse; conditions: 20 μg s.c. on day one after cell transfer
Procedure: Induction of chronic skin inflammation. Briefly, splenocytes were collected from 5-10 week old donor mice (Balb/c) and donor population was either enriched for CD4+ and depleted of CD25+ cells, or depleted of CD25+ cells only. The collected cell population was injected subcutaneously (s.c.) into C.B-17/Icr scid/scid mice, aged 4-8 weeks (usually 3×10^5 to 5×10^5 cells per mouse in 200-400 μL). A systemic (s.c., i.p. or i.v.) injection of an immuno-modulating agent was given 24 hours following cell transfer. Alternatively, these co-injections were given at the same time to one week after. The co-injection was, alternatively, repeated every other day or once a week for the entire course of the experiment.
After 24 hours all recipient mice were given a co-injection of 20 μg LPS (or 10 μg SEB) s.c. Disease causing T cells then proliferated and began to induce inflammation over a period of 4 weeks
The thickness of the skin on the ear was measured using a Dyer micrometer. The micrometer was first modified to better perform in the measurement of soft tissue. The contact pads are reduced to 4 mm, and the spring tension is reduced to <3 lbs.
Co-factor injections are important for their mitogenic properties. […]
The effect of different co-factors on disease induction was assessed. […]

Row | Substance | skin thickness after treatment (psoriatic scid/scid mice; after 8 days of 40 mg/kg twice/day, p=2.01×10^−6) [μm] | skin thickness before treatment (psoriatic scid/scid mice; baseline before 40 mg/kg twice/day for 8 days) [μm] | incidence of disease (scid/scid mice; 5/5) [%] | average ear thickness (scid/scid mice; week 7, n=5 mice, +/- SEM, 30 μm+/−1.2 without co-factor, p=3.6×10^−3) [μm]
1 | methylprednisone | 22.4 | 33.7 |  | 
2 | lipopolysaccharide [LPS] |  |  | 100 | 36.4
